These results are taken from article PMC10723784, “Investigation of the cytotoxicity induced by cannabinoids on human ovarian carcinoma cells” (Pharmacology Research & Perspectives, 2023).

Data set [1] relates to A2780 cells. In words: MTT cytotoxicity assay, A2780 cells. Conditions: for IC50: Homo sapiens, read-out: IC50 cytotoxicity. As to the method: In separate experiments, cells were seeded in 96‐well plates and after 24 h elapsed they were exposed to different concentrations of drugs or vehicle. Cells were then left in the incubator for a further 24 or 48 h. Then the media was replaced with fresh media containing no drug and the cells were left in the incubator. MTT assay was performed after 96 h elapsed from the time when cells were exposed to drugs or vehicle.
The cells were then left in the incubator and MTT assay was performed 96 h following the initial exposure to the drugs.
The selective index (SI) is the ratio of mean IC50 values for non‐cancer cells to cancer cells. […] While the isobologram can be considered predominantly as a graphical depiction of drug interactions, the combination index (CI) is a quantitative representation. It relates the actual drug concentration in the combination to the concentration of the single drug that achieves the same effect. […] Here, CI analysis was used to investigate combinations at 50% cytotoxicity. To this end the IC50 of the viability dose–response curves were determined by non‐linear regression curve fit analysis (GraphPad Prism, v5.00).
CIA+B is the combination index of A and B; C A the concentration of A applied in combination; C B the concentration of B applied in combination; IC50 A the IC50 of drug A when it was applied individually to the cells; IC50 B = IC50 of drug B when it was applied individually to the cells.
In general terms: Tetrazolium dyes change colour on reduction, which living cells bring about.

A further data set concerns A2780/CP70 cells. Nature of the data set: Annexin V assay, A2780/CP70 cells. The format is cell-based, human. Conditions: A2780/CP70, 50 μM, 24 h. As to the method: The Annexin V assay was performed to differentiate healthy cells from early and late apoptotic cells. Cells were seeded in T25 flasks at 2.75 × 10^5 cells per flask and were incubated for 24 h. After the incubation time elapsed, drugs at concentrations of 10, 30, and 50 μM or vehicle were added to the flasks and further incubated for 24 h. Cells were suspended in PBS at a density of 4 × 10^5 cells/mL, followed by centrifugation at 400 g for 5 min. The supernatant was removed and replaced with 100 μL of Annexin V mix, 94 μL of Roche buffer, 2 μL of Annexin V‐CF488A, 2 μL of 10 μg/mL of propodium iodide (PI), and 2 μL of Hoechst 33342 buffer. Hoechst 33342 buffer in the Annexin V mix binds to the nuclei in the sample and fluoresces violet. The early apoptotic cells are stained with Annexin V‐CF488A, which fluoresces green. The non‐viable cells are stained by PI, and the late apoptotic cells are stained by both PI and Annexin V‐CF488A, which fluoresces red and green, respectively. […] After the incubation time elapsed, 40 μL of samples were loaded on to an A‐2 slide and were analyzed immediately using the NC‐3000 system. The scatter plot of the fluorescence intensity of Annexin V‐CF488A versus the fluorescence intensity of PI was used as a representation of cells in different stages of apoptosis.

For data set [2], the system named is A2780 cells. In words: Mitochondrial membrane potential assay (JC-1), A2780 cells. The format is cell-based, human. As to conditions: A2780, 10-50 μM, 24 h, dose-dependent. The method, then: The mitochondrial membrane potential assay was performed to detect the loss in mitochondrial potential (de‐polarization), which is a vital step in apoptosis.[36] Cells were seeded in T25 flasks at 4 × 10^5 cells per flask and were incubated for 48 h or until they reached confluency. After the incubation time elapsed, drugs at concentrations of 10, 30, and 50 μM or vehicle were added to the flasks and further incubated for 24 h. After 24 h elapsed, the cells were harvested and suspended in PBS. Cell viability and number were determined by the cell viability assay using via1 cassettes on NC‐3000 system. The samples were diluted in PBS to 1 × 10^6 cells/mL and 2.5 μg/mL of JC‐1 dye was added to each sample. JC‐1 is a […] dye, which stains as fluorescent red as it aggregates in the mitochondrial matrix. In the absence of mitochondrial membrane potential, JC‐1 localizes in the cytosol in its fluorescent green form. Following the addition of JC‐1, the cells were incubated for 10–30 min at 37°C. […] 12.5 μL of samples were loaded on to an A‐8 slide and were analyzed using the NC‐3000 image cytometry. The degree of apoptosis (in proportional to the loss in mitochondrial membrane potential) was measured using a scatter plot of JC‐1 red fluorescence versus JC‐1 green fluorescence.

Data set [3] concerns caspase 3/7 activity in A2780 cells. Nature of the data set: Caspase 3/7 assay, A2780 cells. The format is cell-based, human. As to conditions: A2780, 24 h contact time, dose-dependent, significant above 10 μM. The method, then:
(§1) Sensolyte homogenous caspase 3/7 assay kit was used to determine the caspase activity in ovarian cancer cells when treated with CBG. Cells were seeded in 96‐well plate at 6 × 10^3 cells per well and were incubated for 24 h. CBG was added in concentrations of 10, 20, 30, and 50 μM and incubated for a further 24 h. After the incubation time elapsed, the media was removed and replaced with 150 μL/well of fresh complete media. Caspase 3/7 solution was prepared by diluting the caspase substrate 1:100 with DTT‐containing assay buffer. 50 μL/well caspase substrate was added to the plates, and the cells were incubated for 30 min. Ac‐DEVD‐AMC serves as the fluorogenic indicator for assaying caspase‐3/7 activity. Ac‐DEVD‐AMC generates the AMC fluorophore in the presence of caspase 3/7, which produces bright blue fluorescence. The fluorescence was measured by the FLOUstar OPTIMA plate reader with the excitation at 354 nm and emission at 442 nm.
(§2) The level of caspase 3/7 was also determined using Apotox‐Glo Triple assay. Cells were seeded and drugs were added as described above in Section 2.6.1. After 24 h incubation, caspase 3/7 reagent was prepared by mixing caspase buffer and substrate and 100 μL of reagent was added to each well for 30 min incubation at room temperature. […] The luminescence was measured by the FLOUstar OPTIMA plate reader.

Data set [4] concerns caspase 3/7 activity in A2780/CP70 cells. In words: Caspase 3/7 assay, A2780/CP70 cells. The format is cell-based, human. Conditions: A2780/CP70, 24 h contact time, dose-dependent, significant above 10 μM. As to the method: as §1, §2
The nature of data set [5]: MTT cytotoxicity assay, non-cancer ARPE19 cells. Conditions: human, ARPE19 non-cancer retinal pigment cells.
Experimental: Human ovarian carcinoma cells, A2780 (sensitive to chemotherapeutics), A2780/CP70 (resistant to chemotherapeutics), and non‐cancerous cells including PNT2 (normal prostate epithelial cell line), and/or ARPE19 (human retinal pigment cell line) were maintained according to the ATCC and ECACC guidelines.
In vitro chemosensitivity assays were performed using the MTT assay as previously described.[32], [33] Briefly, at 70% confluency, cells were seeded in 96‐well plates at a density of 2000 cells/well. […] After the allocated contact time had elapsed, the media was removed and 0.5% (w/v) MTT solution diluted in complete media (200 μL) was added to each well. Following a 4 h incubation, the supernatants were removed, and the formazan crystals were dissolved in dimethylsulfoxide (150 μL). The absorbance was read at 540 nm on a Tecan Infinite 50 plate UV reader.

Where two headings read alike, the source gives them in different places.

Turning to `CCCCCc1cc(O)c(C/C=C(\C)CCC=C(C)C)c(O)c1` [CBG, cannabigerol], the IC50 – broadly, the midpoint of a concentration-inhibition curve – with A2780 cells [1] (A2780, 24 h) was 15.3 ± 0.3 µM; in the data set with A2780 cells [1] (A2780, 48 h), 13.9 ± 0.6 µM; with A2780 cells [1] (A2780, 72 h), 9.4 ± 0.8 µM; with A2780 cells [1] (A2780, 96 h), 5.7 ± 0.2 µM. The Selectivity index was determined as 2.09 with A2780 cells [1] (IC50 ARPE19 / IC50 A2780, 24 h); 1.53 with A2780 cells [1] (IC50 ARPE19 / IC50 A2780, 48 h); 2.04 in the data set with A2780 cells [1] (IC50 ARPE19 / IC50 A2780, 72 h); 3.05 in the data set on A2780 cells [1] (IC50 ARPE19 / IC50 A2780, 96 h); 2.43 in the data set with A2780 cells [1] (IC50 PNT2 / IC50 A2780, 24 h); 1.65 in the data set on A2780 cells [1] (IC50 PNT2 / IC50 A2780, 48 h). The Selectivity index with A2780 cells [1] (IC50 PNT2 / IC50 A2780, 72 h) is listed as 2.12; in the data set on A2780 cells [1] (IC50 PNT2 / IC50 A2780, 96 h), 3.20. The “Cells in early apoptosis” value in the data set on A2780/CP70 cells stood at 72 ± 1.4%. Further, in the data set with A2780/CP70 cells, the “Cells in late apoptosis” value came out at 9 ± 1.4%. Moreover, in the data set with A2780 cells [2], the “Percentage of apoptotic cells (loss of mitochondrial membrane potential)” value is “induced an increase in the percentage of apoptotic cells”. In addition, the “Caspase 3/7 activity” value in data set [3] and in data set [4] was “increased the caspase 3/7 activity” in each case. In data set [5], this molecule displayed an IC50 at 24 h of 32.1 ± 1.8 µM. The IC50 at 48 h in data set [5] was 21.2 ± 2.7 µM. In data set [5], this molecule gave an IC50 at 72 h of 19.2 ± 1 µM. In data set [5], half-maximal inhibition (IC50 at 96 h) was put at 17.4 ± 2.4 µM.
